Reference: patent US20260240794A1 (priority 2023, published 2026)
Read-outs that look alike come from different tables or passages of the source.

Experiments:
[1] = Pharmacokinetics of inhaled and oral airway drugs (literature); assay type: in vivo, humans; details: 6 children with asthma versus 11 healthy adults
[2] = cited from earlier work
[3] = tested on: cAMP accumulation; test: cAMP accumulation
[4] = tested on: Phospholipase C (PLC-β1); test: Ratio of phospholipase C to actin by immunoblotting in cultured tracheal smooth muscle cells; assay type: cell-based; details: cells from asthmatic mice, chronic nadolol high dose treatment
Text: Cultured tracheal smooth muscle cells were obtained from mice exposed to the following treatments: NS/NC=nonasthmatic, non-challenged mice; S/C=asthmatic mice; Sal.Ac=asthmatic mice, acute salbutamol treatment; Sal.Ch=asthmatic mice, chronic salbutamol treatment; Nad.Ac=asthmatic mice, acute nadolol high dose treatment; and Nad.Ch=asthmatic mice, chronic nadolol high dose treatment.
After airway function experiments, the tracheas were surgically removed from anesthetized mice that had been treated with drugs or vehicle. The tracheas were minced and the cells plated and grown in culture. The smooth muscle cells grow faster and take over the culture dish. The cells were grown in medium which contained the drugs used in the treatment or vehicle controls. Phospholipase C (PLC-(β1) was determined by immunoblotting with an antibody specific for the enzyme. Actin was used as a loading control and the amount of PLC-β1 was expressed as a ratio of phospholipase C to actin.

[5] = cited from earlier work; remark: listed apart in the source
[6] = tested on: mucous metaplasia; test: Mucous metaplasia in sensitized/challenged mice (photomicrographs); assay type: in vivo; details: sensitized/challenged mice after treatment
Text: FIG. 9 is a photomicrograph showing the occurrence of a mucus plug in the bronchus of a child with fatal asthma.

[7] = tested on: mucin 5AC; test: Level of mucin 5AC in smokers, nadolol versus placebo; assay type: in vivo, human; details: P<0.05
[8] = target: T1, β2-adrenergic receptor (Mus musculus, UniProt P18762); test: β-adrenergic receptor density by radioligand binding (ICYP) in lung membranes of treated asthmatic mice; details: for Kd: KD of radioligand ICYP in lung membranes, not of the drug, read-out: Apparent KD (in parentheses) (converted); for Bmax (receptor density): lung membranes
T1 construct: rows headed: Apparent KD (in parentheses); other: 15 Minutes of drug treatment; KD of radioligand ICYP in lung membranes, not of the; Bmax (receptor density); lung membranes; Apparent KD (in parentheses); other: 28 Days of drug treatment; KD of radioligand ICYP in lung membranes, not of the dr
T1 sequence (P18762 whole entry): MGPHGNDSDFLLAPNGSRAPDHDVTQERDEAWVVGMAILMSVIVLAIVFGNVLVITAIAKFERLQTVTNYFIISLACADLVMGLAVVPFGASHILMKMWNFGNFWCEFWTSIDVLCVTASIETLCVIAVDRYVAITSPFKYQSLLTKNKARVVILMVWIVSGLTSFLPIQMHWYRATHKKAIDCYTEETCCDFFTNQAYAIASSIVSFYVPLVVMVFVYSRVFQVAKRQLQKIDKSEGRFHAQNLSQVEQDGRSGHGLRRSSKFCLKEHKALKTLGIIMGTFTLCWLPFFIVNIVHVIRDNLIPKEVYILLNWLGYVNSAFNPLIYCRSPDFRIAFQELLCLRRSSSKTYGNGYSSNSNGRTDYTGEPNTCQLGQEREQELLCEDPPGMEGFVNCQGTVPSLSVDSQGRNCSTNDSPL

[9] = tested on: β-arrestin pathway; test: Block of the β-arrestin pathway; details: FIG. 13
[10] = tested on: asthmatic mice (ovalbumin-sensitized and ovalbumin-challenged); assay type: in vivo, Balb/cJ mice; details: chronic treatment 7 days, 20 mg/kg (metoprolol 3x daily s.c., timolol in chow), versus historical controls

Structure (SMILES) | Kd ([8]; 15 Minutes of drug treatment) [nM] | Kd ([8]; 28 Days of drug treatment) [nM] | Bmax (receptor density) ([8]; 28 Days of drug treatment) | block of the β-arrestin pathway [9] | further results
CCCC1O[C@@H]2C[C@H]3[C@@H]4CCC5=CC(=O)C=C[C@]5(C)[C@H]4[C@@H](O)C[C@]3(C)[C@]2(C(=O)CO)O1 (stereo partly drawn) [budesonide] |  |  |  |  | plasma clearance of the two enantiomers per kilogram of bodyweight, excess in children over adults [1]: about 50%; elimination half-life ([2]; in vivo): 2.8 ± 1.1 h; plasma clearance ([2]; in vivo): 84 ± 27 L/h
CC(C)(C)NCC(O)COc1cccc2c1CC(O)C(O)C2 (stereo not drawn) [nadolol] | 0.695 | 1.59 | 785.5 ± 154.8 femtomoles of sites per milligram of protein | blocks this pathway | cAMP accumulation [3]: not associated with cAMP accumulation; ratio of phospholipase C (PLC-β1) to actin [4]: significantly decreases the activity of phospholipase C; lipid solubility [5]: low lipid solubility; mucous metaplasia [6]: nearly complete elimination of mucous metaplasia; level of mucin 5AC [7]: reduces the accumulation of the mucus-associated protein mucin 5AC
COCCc1ccc(OCC(O)CNC(C)C)cc1 (stereo not drawn) [metoprolol] |  |  |  |  | airway hyperresponsiveness (Raw) [10]: effective in reducing airway hyperresponsiveness
CC(C)(C)NC[C@H](O)COc1nsnc1N1CCOCC1 [timolol] |  |  |  |  | airway hyperresponsiveness (Raw) [10]: effective in reducing airway hyperresponsiveness
C=CCc1ccccc1OCC(O)CNC(C)C (stereo not drawn) [alprenolol] | 0.454 | 0.291 | 179.2 ± 53.05 femtomoles of sites per milligram of protein | did not block the β-arrestin pathway | mucous metaplasia [6]: no improvement in mucous metaplasia
CC(C)(C)NCC(O)c1cc(O)cc(O)c1 (stereo not drawn) [terbutaline] |  |  |  |  | bioavailability with the oral component (swallowed fraction of the dose) added ([2]; from an MDI): 16.5%; mean pulmonary bioavailability ([2]; from an MDI): 9.1%
CC(C)(C)NCC(O)c1ccc(O)c(CO)c1 (stereo not drawn) [salbutamol] |  |  | 97.0 ± 23.02 femtomoles of sites per milligram of protein |  | 
CC(C)NCC(O)COc1cccc2ccccc12 (stereo not drawn) [propranolol] |  |  |  | did not block the β-arrestin pathway | 
COc1ccccc1OCCNCC(O)COc1cccc2[nH]c3ccccc3c12 (stereo not drawn) [carvedilol] | 0.565 | 1.44 | 904.1 ± 43.46 femtomoles of sites per milligram of protein | did not block the β-arrestin pathway | 
